# Assays:
# Format in all cases: in vivo
# VIOAR = test: Post-emergence test, weed control; conditions: 2–4 weeks after treatment, rating 0-100 (100=death), Table 5
# Procedure, shortened: (§1)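 Acetone solutions of compound were diluted with water and sprayed post-emergence at about 0.030 to 0.240 kg per hectare per pot. Plants were kept on greenhouse benches under usual care and rated 2 to 4 weeks after treatment, 0 meaning growth as untreated control and 100 meaning death.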
# Stellaria media [1] = test: Post-emergence test, weed control; conditions: 2–4 weeks after treatment, rating 0-100 (100=death), Table 5
# Procedure, shortened: as §1
# Lamium purpureum [2] = test: Post-emergence test, weed control; conditions: 2–4 weeks after treatment, rating 0-100 (100=death), Table 5
# Procedure, shortened: as §1
# Galium aparine [3] = test: Post-emergence test, weed control; conditions: 2–4 weeks after treatment, rating 0-100 (100=death), Table 5
# Procedure, shortened: as §1
# [4] = test system: Triticum aestivum variety “Kanzler”; test: Pre-emergence test, selectivity; conditions: 3 weeks after treatment, rating 0-100 (100=death), Table 2
# Procedure, shortened: (§2)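 Herbicidal effect was scored visually on a 0–100 scale (100 = death, 0 = untreated-like) three weeks after treatment. Soil was horticultural loam sprayed just after sowing with aqueous-diluted acetone/0.4% TRITON X-155 formulations at 15–240 g a.i./ha (900 L/ha).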
# HORVW = test: Pre-emergence test, selectivity; conditions: 3 weeks after treatment, rating 0-100 (100=death), Table 2
# Procedure, shortened: as §2
# [5] = test system: Triticum aestivum variety “Monopol”; test: Pre-emergence test, selectivity; conditions: 3 weeks after treatment, rating 0-100 (100=death), Table 2
# Procedure, shortened: as §2
# [6] = test system: Hordeum vulgare variety “Mammut”; test: Pre-emergence test, selectivity; conditions: 3 weeks after treatment, rating 0-100 (100=death), Table 2
# Procedure, shortened: as §2
# wheat = test: Post-emergence test, tolerance in wheat; conditions: in vivo
# Protocol: These acetone solutions are diluted with water and the resulting formulations applied at dosage levels equivalent of about 0.030 to 0.240 kg per hectare of test compound per pot. After spraying the plants are placed an greenhouse benches and are cared for in the usual manner, commensurate with conventional greenhouse practices. From 2 to 4 weeks after treatment, the seedling plants are examined and rated according to the rating system provided above. A rating 0 indicates growth as untreated control, a rating 100 indicates death.
# Alopecurus myosuroides = test: Pre-emergence test, weed control; conditions: 3 weeks after treatment, rating 0-100 (100=death), Table 1
# Procedure, shortened: as §2
# Poa annua = test: Pre-emergence test, weed control; conditions: 3 weeks after treatment, rating 0-100 (100=death), Table 1
# Procedure, shortened: as §2
# Veronica persica = test: Pre-emergence test, weed control; conditions: 3 weeks after treatment, rating 0-100 (100=death), Table 1
# Procedure, shortened: as §2
# Stellaria media [7] = test: Pre-emergence test, weed control; conditions: 3 weeks after treatment, rating 0-100 (100=death), Table 1
# Procedure, shortened: as §2
# Matricaria inodora = test: Pre-emergence test, weed control; conditions: 3 weeks after treatment, rating 0-100 (100=death), Table 1
# Procedure, shortened: as §2
# Lolium perenne = test: Pre-emergence test, weed control; conditions: 3 weeks after treatment, rating 0-100 (100=death), Table 1
# Procedure, shortened: as §2
# Lamium purpureum [8] = test: Pre-emergence test, weed control; conditions: 3 weeks after treatment, rating 0-100 (100=death), Table 1
# Procedure, shortened: as §2
# Polygonum convolvulus = test: Pre-emergence test, weed control; conditions: 3 weeks after treatment, rating 0-100 (100=death), Table 1
# Procedure, shortened: as §2
# Apera spica-venti = test: Pre-emergence test, weed control; conditions: 3 weeks after treatment, rating 0-100 (100=death), Table 1
# Procedure, shortened: as §2
# Galium aparine [9] = test: Pre-emergence test, weed control; conditions: 3 weeks after treatment, rating 0-100 (100=death), Table 1
# Procedure, shortened: as §2
# Setaria viridis = test: Pre-emergence test, weed control; conditions: 3 weeks after treatment, rating 0-100 (100=death), Table 1
# Procedure, shortened: as §2
smiles,measurement,setting,value
Cc1nc(-c2ccc(C(F)(F)F)cc2)nc(Oc2cccc(C(F)(F)F)c2)c1C [REF-2],VIOAR weed control rating,VIOAR; 0.030 kg/ha,75
same,VIOAR weed control rating,VIOAR; 0.060 kg/ha,90
same,VIOAR weed control rating,VIOAR; 0.120 kg/ha,90
same,VIOAR weed control rating,VIOAR; 0.240 kg/ha,95
same,STEME weed control rating,Stellaria media [1]; 0.030 kg/ha,45
same,STEME weed control rating,Stellaria media [1]; 0.060 kg/ha,50
same,STEME weed control rating,Stellaria media [1]; 0.120 kg/ha,55
same,STEME weed control rating,Stellaria media [1]; 0.240 kg/ha,80
same,LAMPU weed control rating,Lamium purpureum [2]; 0.030 kg/ha,85
same,LAMPU weed control rating,Lamium purpureum [2]; 0.060 kg/ha,90
same,LAMPU weed control rating,Lamium purpureum [2]; 0.120 kg/ha,92
same,LAMPU weed control rating,Lamium purpureum [2]; 0.240 kg/ha,93
same,GALAP weed control rating,Galium aparine [3]; 0.030 kg/ha,50
same,GALAP weed control rating,Galium aparine [3]; 0.060 kg/ha,80
same,GALAP weed control rating,Galium aparine [3]; 0.120 kg/ha,85
same,GALAP weed control rating,Galium aparine [3]; 0.240 kg/ha,85
same,TRZAWK rating (Selectivity),[4]; 0.030 kg/ha,1
same,TRZAWK rating (Selectivity),[4]; 0.060 kg/ha,1
same,TRZAWK rating (Selectivity),[4]; 0.120 kg/ha,1
same,TRZAWK rating (Selectivity),[4]; 0.240 kg/ha,5
same,HORVW rating (Selectivity),HORVW; 0.030 kg/ha,10
same,HORVW rating (Selectivity),HORVW; 0.060 kg/ha,10
same,HORVW rating (Selectivity),HORVW; 0.120 kg/ha,20
same,HORVW rating (Selectivity),HORVW; 0.240 kg/ha,30
same,TRZAWM rating (Selectivity),[5]; 0.030 kg/ha,1
same,TRZAWM rating (Selectivity),[5]; 0.060 kg/ha,1
same,TRZAWM rating (Selectivity),[5]; 0.120 kg/ha,2
same,TRZAWM rating (Selectivity),[5]; 0.240 kg/ha,5
same,HORVWM rating (Selectivity),[6]; 0.030 kg/ha,3
same,HORVWM rating (Selectivity),[6]; 0.060 kg/ha,5
same,HORVWM rating (Selectivity),[6]; 0.120 kg/ha,18
same,HORVWM rating (Selectivity),[6]; 0.240 kg/ha,25
same,maximum tolerated dose in wheat / dose at which sufficiently selective in wheat,wheat,similarly selective in wheat
same,ALOMY weed control rating,Alopecurus myosuroides; 0.015 kg/ha,0
same,ALOMY weed control rating,Alopecurus myosuroides; 0.030 kg/ha,5
same,ALOMY weed control rating,Alopecurus myosuroides; 0.060 kg/ha,15
same,ALOMY weed control rating,Alopecurus myosuroides; 0.120 kg/ha,65
same,ALOMY weed control rating,Alopecurus myosuroides; 0.240 kg/ha,70
same,POAAN weed control rating,Poa annua; 0.015 kg/ha,65
same,POAAN weed control rating,Poa annua; 0.030 kg/ha,95
same,POAAN weed control rating,Poa annua; 0.060 kg/ha,97
same,POAAN weed control rating,Poa annua; 0.120 kg/ha,100
same,POAAN weed control rating,Poa annua; 0.240 kg/ha,100
same,VERPE weed control rating,Veronica persica; 0.015 kg/ha,25
same,VERPE weed control rating,Veronica persica; 0.030 kg/ha,99
same,VERPE weed control rating,Veronica persica; 0.060 kg/ha,100
same,VERPE weed control rating,Veronica persica; 0.120 kg/ha,100
same,VERPE weed control rating,Veronica persica; 0.240 kg/ha,100
same,STEME weed control rating,Stellaria media [7]; 0.015 kg/ha,0
same,STEME weed control rating,Stellaria media [7]; 0.060 kg/ha,20
same,STEME weed control rating,Stellaria media [7]; 0.120 kg/ha,97
same,STEME weed control rating,Stellaria media [7]; 0.240 kg/ha,100
same,MATIN weed control rating,Matricaria inodora; 0.015 kg/ha,95
same,MATIN weed control rating,Matricaria inodora; 0.030 kg/ha,98
same,MATIN weed control rating,Matricaria inodora; 0.060 kg/ha,98
same,MATIN weed control rating,Matricaria inodora; 0.120 kg/ha,99
same,MATIN weed control rating,Matricaria inodora; 0.240 kg/ha,99
same,LOLPE weed control rating,Lolium perenne; 0.015 kg/ha,5
same,LOLPE weed control rating,Lolium perenne; 0.030 kg/ha,30
same,LOLPE weed control rating,Lolium perenne; 0.060 kg/ha,60
same,LOLPE weed control rating,Lolium perenne; 0.120 kg/ha,93
same,LOLPE weed control rating,Lolium perenne; 0.240 kg/ha,97
same,LAMPU weed control rating,Lamium purpureum [8]; 0.030 kg/ha,40
same,LAMPU weed control rating,Lamium purpureum [8]; 0.060 kg/ha,75
same,LAMPU weed control rating,Lamium purpureum [8]; 0.120 kg/ha,98
same,LAMPU weed control rating,Lamium purpureum [8]; 0.240 kg/ha,100
same,POLCO weed control rating,Polygonum convolvulus; 0.015 kg/ha,0
same,POLCO weed control rating,Polygonum convolvulus; 0.030 kg/ha,0
same,POLCO weed control rating,Polygonum convolvulus; 0.060 kg/ha,0
same,POLCO weed control rating,Polygonum convolvulus; 0.120 kg/ha,30
same,POLCO weed control rating,Polygonum convolvulus; 0.240 kg/ha,80
same,APESV weed control rating,Apera spica-venti; 0.015 kg/ha,80
same,APESV weed control rating,Apera spica-venti; 0.030 kg/ha,85
same,APESV weed control rating,Apera spica-venti; 0.060 kg/ha,98
same,APESV weed control rating,Apera spica-venti; 0.120 kg/ha,100
same,APESV weed control rating,Apera spica-venti; 0.240 kg/ha,100
same,GALAP weed control rating,Galium aparine [9]; 0.015 kg/ha,0
same,GALAP weed control rating,Galium aparine [9]; 0.030 kg/ha,0
same,GALAP weed control rating,Galium aparine [9]; 0.060 kg/ha,3
same,GALAP weed control rating,Galium aparine [9]; 0.120 kg/ha,5
same,GALAP weed control rating,Galium aparine [9]; 0.240 kg/ha,50
same,SETVI weed control rating,Setaria viridis; 0.015 kg/ha,65
same,SETVI weed control rating,Setaria viridis; 0.060 kg/ha,97
same,SETVI weed control rating,Setaria viridis; 0.120 kg/ha,100
same,SETVI weed control rating,Setaria viridis; 0.240 kg/ha,100

# From patent publication US7008905B2, “Method of combating undesired plant growth on cereals” (BASF Aktiengesellschaft, priority 2000, dated 2006)
